Non-standard residues stand in square brackets, D forms with d. Primed or numbered codes have the meaning given here. No end group written: not given here. *: point of attachment. FITC = O=C1OC2(c3ccc(O)cc3Oc3cc(O)ccc32)c2ccc(NC(=S)*)cc21; Pip′ = not defined here
What was measured:
Format in all cases: biochemical
MMP-2 [1] = biological target: T1, MMP-2 (Homo sapiens, UniProt P08253); experiment: Inhibition of MMP-2 mediated probe activation by inhibitors; conditions: 1 mM
T1 construct: purchased Boehringer-Mannheim, Ind
T1 sequence (P08253 110-660): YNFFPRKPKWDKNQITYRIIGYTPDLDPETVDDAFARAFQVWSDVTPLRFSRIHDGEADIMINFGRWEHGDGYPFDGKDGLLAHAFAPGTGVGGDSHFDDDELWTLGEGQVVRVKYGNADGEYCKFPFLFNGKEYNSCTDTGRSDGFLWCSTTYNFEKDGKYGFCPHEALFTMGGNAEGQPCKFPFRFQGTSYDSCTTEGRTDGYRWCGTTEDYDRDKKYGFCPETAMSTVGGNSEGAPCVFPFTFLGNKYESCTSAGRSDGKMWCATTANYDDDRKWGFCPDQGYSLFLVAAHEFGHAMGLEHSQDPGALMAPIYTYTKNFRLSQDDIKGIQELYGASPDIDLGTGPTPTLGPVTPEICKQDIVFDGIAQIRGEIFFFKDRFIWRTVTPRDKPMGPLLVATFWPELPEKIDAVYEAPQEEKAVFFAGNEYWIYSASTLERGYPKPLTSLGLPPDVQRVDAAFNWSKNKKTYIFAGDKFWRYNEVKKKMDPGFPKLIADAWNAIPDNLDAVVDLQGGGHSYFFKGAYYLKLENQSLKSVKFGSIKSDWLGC
Method: Using 5 U of MMP-2 and 19 pmol of imaging probe, we performed a dose response study of mediated MMP inhibition up to 0.1 mM of inhibitor.
To determine the range of enzyme activation, a constant amount of imaging probe (26.6 pmol) was incubated with variable amounts of activated MMP-2 and fluorescence was determined after 24 hours. Inhibition experiments were performed by incubating 1 U of purified, activated MMP-2 with 19 pmol NIRF probe (220 pmol Cy 5.5) in the presence of different inhibitors, 1.10 phenanthroline (1 mM, Aldrich, Milwaukee, Wis.), a Zinc chelator, or a direct MMP-2 inhibitor.

thrombin = biological target: T2, thrombin (Homo sapiens, UniProt P00734); experiment: Enzymatic assay of peptide cleavage by thrombin (HPLC)
T2 construct: tested with purified thrombin in PBS buffer
Excerpt: In contrast, there was no cleavage when the serine at P1′ position was replaced by a proline residue.

MMP-2 [2] = biological target: T1, MMP-2; experiment: HPLC analysis of peptide substrates after incubation with MMP-2
Method: The synthesized probes contain a preferential MMP-2 peptide substrate. Two different peptide substrates were used in this study, an MMP-2 cleavable peptide ([…](FITC)C-NH2 (SEQ ID NO:10) (substrate sites are italicized)) and a scrambled control peptide. […] Although the latter control probe has a GVR leader sequence, it is too short to be recognized by MMP-2.
Characterization of probe. A number of experiments were conducted to characterize the peptide substrate and imaging probes. Initially we performed HPLC analysis of peptide and control substrates prior to and after incubation with 1 U of MMP-2. One unit is the activity that hydrolyzes 1 μg of type IV collagen within 1 hour using a commercially available assay (gelatinase 72 kD, Boehringer Mannheim, Indianapolis, Ind.). Reverse phase HPLC (Brownlee, Spheri-5, ODS, 30×4.6 mm), using 0.1% TFA and acetonitrile as elution buffers was performed (Rainin Instruments, Woburn, Mass.). […] The control probe contained the scrambled peptide. To determine the range of enzyme activation, a constant amount of imaging probe (26.6 pmol) was incubated with variable amounts of activated MMP-2 and fluorescence was determined after 24 hours. […]

purified thrombin = biological target: T3, purified thrombin (Homo sapiens, UniProt P00734); experiment: Probe activation with purified thrombin in PBS buffer, NIRF signal over time; conditions: thrombin added to solutions containing thrombin probe and hirudin, compared to hirudin-free solutions
T3 construct: tested with purified thrombin in PBS buffer
Method: The prepared probes were first tested with purified thrombin in PBS buffer as the NIRF signal was recorded over time. […] Following addition of thrombin, NIRF signal increased from 150 AU to 4100 AU within 20 minutes (27 fold increase). […] There was a clear dose response when the probe was incubated with different amounts of thrombin.

## c1cnc2c(c1)ccc1cccnc12 [1,10 phenanthroline]
MMP-2 [1]
  blocking of fluorescence activation: completely blocked

## Gly-D-Phe-Pip-Arg-Pro-Gly-Gly-Gly-Gly-Lys(FITC)-Cys-NH2
thrombin; two hours following incubation with thrombin
  stability against thrombin: remained intact

## Gly-D-Phe-Pip-Arg-Ser-Gly-Gly-Gly-Gly-Lys(FITC)-Cys-NH2 (G[dF][Pip′]RSGGGGK(FITC)C-NH2) [C-terminal extended peptide]
thrombin; HPLC
  cleavage by thrombin: cleaved into two major products

## Gly-Pro-Leu-Gly-Val-Arg-Gly-Lys(FITC)-Cys-NH2 (GPLGVRGK(FITC)C-NH2; N-terminus assumed; SMILES CC(C)C[C@H](NC(=O)[C@@H]1CCCN1C(=O)CN)C(=O)NCC(=O)N[C@H](C(=O)N[C@@H](CCCNC(=N)N)C(=O)NCC(=O)N[C@@H](CCCCNC(=S)Nc1ccc2c(c1)C(=O)OC21c2ccc(O)cc2Oc2cc(O)ccc21)C(=O)N[C@@H](CS)C(N)=O)C(C)C)
MMP-2 [2]
  cleavage by MMP-2: cleavage of the former

## hirudin
Purified thrombin
  effect on thrombin activation of the thrombin probe: significantly less NIRF signal

Source: patent US20110152501A1, “Activatable Imaging Probes” (THE GENERAL HOSPITAL CORPORATION, priority 2001, published 2011)
